The values that follow come from ChEMBL document CHEMBL3102722, “Diarylacylhydrazones: Clostridium-selective antibacterials with activity against stationary-phase cells” (Bioorg Med Chem Lett, 2014).

≈ marks a conversion by molar mass, not a printed value. Calls of active or inactive are those of the source. The rule behind the calls is not given here. Bounds are passed on as bounds.

Data set [1] deals with Clostridioides difficile. Description: Antibacterial activity against stationary phase of Clostridium difficile CD196 assessed as cell killing at 1 to 20 X MIC after 3 to 6 hrs. The class given is functional.
In a further data set the test system is FaDu. As to the kind of experiment: Cytotoxicity against human FADU cells assessed as concentration required to decrease cell viability incubated for 24 hrs followed by compound washout measured after 18 hrs by resazurin dye-based assay. For orientation: Resazurin is reduced to fluorescent resorufin, in cell work by metabolically active cells.
In another data set the test system is Enterococcus faecalis. Description: Antibacterial activity against Enterococcus faecalis ATCC 47077 assessed as growth inhibition after 20 to 24 hrs. In kind it is functional.
The subject of data set [2] is Bacteroides thetaiotaomicron. As to the kind of experiment: Antibacterial activity against Bacteroides thetaiotaomicron ATCC 29148 assessed as growth inhibition after 20 to 24 hrs. In kind it is functional.
In a further data set the test system is Lacticaseibacillus casei. Description: Antibacterial activity against Lactobacillus casei ATCC 334 assessed as growth inhibition after 20 to 24 hrs. In kind it is functional.
The test system of the next data set is Streptococcus mutans. As to the kind of experiment: Antibacterial activity against Streptococcus mutans ATCC 700610 assessed as growth inhibition after 20 to 24 hrs. The class given is functional.
The test system of the next data set is Staphylococcus aureus. As to the kind of experiment: Antibacterial activity against Staphylococcus aureus 8325-4 assessed as growth inhibition after 20 to 24 hrs. In kind it is functional.
Another data set has as its system Bifidobacterium longum. Description: Antibacterial activity against Bifidobacterium longum ATCC BAA-999 assessed as growth inhibition after 20 to 24 hrs. In kind it is functional.
Data set [3] has as its system Clostridioides difficile. As to the kind of experiment: Antibacterial activity against Clostridium difficile CD196 assessed as growth inhibition after 20 to 24 hrs. The class given is functional.
A short description of data set [4]: Cytotoxicity against human HepG2 cells assessed as concentration required to decrease cell viability incubated for 24 hrs followed by compound washout measured after 18 hrs by resazurin dye-based assay. Conditions: read-out: Activity.
The next data set relates to Bacteroides fragilis. Description: Antibacterial activity against Bacteroides fragilis ATCC 25285 assessed as growth inhibition after 20 to 24 hrs. In kind it is functional. Conditions: NCTC 9343.
Another data set deals with Escherichia coli. As to the kind of experiment: Antibacterial activity against Escherichia coli ATCC 700927 assessed as growth inhibition after 20 to 24 hrs. In kind it is functional.
The subject of data set [5] is Limosilactobacillus reuteri. Description: Antibacterial activity against Lactobacillus reuteri ATCC 23272 assessed as growth inhibition after 20 to 24 hrs. In kind it is functional.
A further data set relates to Clostridium perfringens. Description: Antibacterial activity against Clostridium perfringens ATCC 13124 assessed as growth inhibition after 20 to 24 hrs. In kind it is functional.
The test system of data set [6] is Clostridioides difficile. Description: Bactericidal activity against Clostridium difficile CD196 after 20 to 24 hrs. Conditions: read-out: MBC99.9. In kind it is functional.

In the case of `N#CC(C#N)=NNc1cccc(Cl)c1` [CARBONYL CYANIDE M-CHLOROPHENYLHYDRAZONE], the outcome in the data set with Clostridioides difficile [1] was Active. In addition, in the data set on FaDu, the Activity was 50 µg/mL. Besides, the MIC – broadly, the lowest concentration found to suppress growth – with Enterococcus faecalis is above 50 µg/mL; in [2], above 50 µg/mL; in the data set on Lacticaseibacillus casei, above 50 µg/mL; in the data set with Streptococcus mutans, above 50 µg/mL; in the data set on Staphylococcus aureus it was above 50 µg/mL; in the data set with Bifidobacterium longum, 3.25 µg/mL (≈ 15.9 µM). For the same molecule, the MIC in the data set on Clostridioides difficile [3] is 1.56 µg/mL (≈ 7.62 µM); in the data set on Bacteroides fragilis it was above 50 µg/mL; with Escherichia coli it was above 50 µg/mL; in [5], above 50 µg/mL; in the data set on Clostridium perfringens, above 50 µg/mL. Further, the MCC at 24 h in [4] was 50 µg/mL.
Consider `Cc1ccc(C(=O)N/N=C/c2c(O)ccc3ccccc23)cc1`, for which, in the data set with Clostridioides difficile [1], the result was Active. The Activity in the data set on FaDu is above 100 µg/mL. Besides, the MIC was above 50 µg/mL in the data set on Enterococcus faecalis; 25 µg/mL (≈ 82.1 µM) in data set [2]; above 50 µg/mL with Lacticaseibacillus casei; above 50 µg/mL in the data set with Streptococcus mutans; above 50 µg/mL in the data set with Staphylococcus aureus; above 50 µg/mL with Bifidobacterium longum. The MIC was 6.25 µg/mL (≈ 20.5 µM) in the data set with Clostridioides difficile [3]; 12.5 µg/mL (≈ 41.1 µM) in the data set with Bacteroides fragilis; above 50 µg/mL with Escherichia coli; above 50 µg/mL in data set [5]; 1.56 µg/mL (≈ 5.13 µM) in the data set with Clostridium perfringens. The MBC in the data set on Clostridioides difficile [6] came to 6.25 µg/mL (≈ 20.5 µM). The MCC at 24 h in data set [4] was above 100 µg/mL.
On to `Clc1ccc(COC(Cn2ccnc2)c2ccc(Cl)cc2Cl)c(Cl)c1` (stereo not drawn) [MICONAZOLE], for which the Activity with FaDu was 50 µg/mL. Besides, the MCC at 24 h in [4] was 50 µg/mL.
On to `COc1cccc(/C=N/NC(=O)c2cc(C)nc3ccc(Br)cc23)c1O`, for which the MIC (in the data set on Enterococcus faecalis; in [2]; with Lacticaseibacillus casei; in the data set with Streptococcus mutans; with Staphylococcus aureus; with Bifidobacterium longum) was above 50 µg/mL throughout. Also, the MIC in the data set with Clostridioides difficile [3] was 6.25 µg/mL (≈ 15.1 µM); in the data set with Bacteroides fragilis, above 50 µg/mL; in the data set with Escherichia coli it was above 50 µg/mL; in [5] it was above 50 µg/mL; in the data set with Clostridium perfringens it was 6.25 µg/mL (≈ 15.1 µM).
In the case of `COc1ccc2ccccc2c1/C=N/N(C)C(=O)c1ccc(C)cc1`, the MIC (in the data set with Enterococcus faecalis; in data set [2]; in the data set on Lacticaseibacillus casei; in the data set with Streptococcus mutans; in the data set on Staphylococcus aureus; in the data set on Bifidobacterium longum) was above 50 µg/mL throughout. The MIC (in the data set with Clostridioides difficile [3]; with Bacteroides fragilis; with Escherichia coli; in [5]; in the data set on Clostridium perfringens) was above 50 µg/mL each time.
For `Cc1ncc([N+](=O)[O-])n1CCO` [METRONIDAZOLE], the result in the data set on Clostridioides difficile [1] was inactive. In addition, the Activity in the data set with FaDu is above 200 µg/mL. In addition, the MIC was above 50 µg/mL in the data set on Enterococcus faecalis; at most 0.78 µg/mL in [2]; above 50 µg/mL in the data set on Lacticaseibacillus casei; above 50 µg/mL in the data set with Streptococcus mutans; above 50 µg/mL in the data set on Staphylococcus aureus; at most 0.78 µg/mL with Bifidobacterium longum. Moreover, the MIC in the data set on Clostridioides difficile [3] is 1.56 µg/mL (≈ 9.11 µM); in the data set with Bacteroides fragilis, at most 0.78 µg/mL; in the data set on Escherichia coli it was above 50 µg/mL; in [5] it was above 50 µg/mL; in the data set with Clostridium perfringens, 3.13 µg/mL (≈ 18.3 µM). Moreover, in data set [4], the MCC at 24 h was above 200 µg/mL.
In the case of `Cc1ccc(C(=O)N/N=C/c2cccc3ccccc23)cc1`, the minimum inhibitory concentration (MIC) (in the data set with Enterococcus faecalis; in data set [2]; in the data set on Lacticaseibacillus casei; in the data set on Streptococcus mutans; in the data set on Staphylococcus aureus; in the data set with Bifidobacterium longum) was above 50 µg/mL throughout. The minimal inhibitory concentration (MIC) (with Clostridioides difficile [3]; in the data set on Bacteroides fragilis; with Escherichia coli; in data set [5]; in the data set on Clostridium perfringens) was above 50 µg/mL throughout.
